Key:
TBK1 = TBK1 (Homo sapiens (Human), UniProt Q9UHD2); assay: TR-FRET kinase assay, TBK1; settings: read-out: TBK1-IC50; full length recombinant TBK1 2.5 nM, 2x Km ATP, 1 μM peptide, 240 min at 25° C.; geometric mean of minimum four determinations
TBK1, sequence (Q9UHD2 whole entry): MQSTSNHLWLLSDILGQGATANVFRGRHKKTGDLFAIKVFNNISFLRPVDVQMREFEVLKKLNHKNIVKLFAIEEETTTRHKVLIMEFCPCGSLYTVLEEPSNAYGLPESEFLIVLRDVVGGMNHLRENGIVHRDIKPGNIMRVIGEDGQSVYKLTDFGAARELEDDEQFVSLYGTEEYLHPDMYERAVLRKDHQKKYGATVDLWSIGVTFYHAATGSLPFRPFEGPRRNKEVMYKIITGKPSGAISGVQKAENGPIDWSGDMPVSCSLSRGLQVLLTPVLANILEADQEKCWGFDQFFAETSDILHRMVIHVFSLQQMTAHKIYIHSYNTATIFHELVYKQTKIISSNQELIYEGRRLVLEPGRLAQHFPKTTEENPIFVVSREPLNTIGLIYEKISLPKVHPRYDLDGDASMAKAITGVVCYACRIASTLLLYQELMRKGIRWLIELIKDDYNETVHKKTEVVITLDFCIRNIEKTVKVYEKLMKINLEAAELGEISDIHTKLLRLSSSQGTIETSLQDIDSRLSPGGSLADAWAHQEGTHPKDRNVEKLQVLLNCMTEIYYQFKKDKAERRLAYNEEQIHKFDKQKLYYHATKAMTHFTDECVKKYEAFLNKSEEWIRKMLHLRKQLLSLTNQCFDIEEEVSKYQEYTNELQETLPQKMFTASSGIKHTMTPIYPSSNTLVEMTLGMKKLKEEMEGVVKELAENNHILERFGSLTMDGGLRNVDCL

IKKε = IKKε (Homo sapiens (Human), UniProt Q14164); assay: TR-FRET kinase assay, IKKε; format: biochemical; settings: full length recombinant IKKε 0.3 nM, 2x Km ATP, 1 μM peptide, 240 min at 25° C.; geometric mean of minimum four determinations
IKKε, sequence (Q14164 whole entry): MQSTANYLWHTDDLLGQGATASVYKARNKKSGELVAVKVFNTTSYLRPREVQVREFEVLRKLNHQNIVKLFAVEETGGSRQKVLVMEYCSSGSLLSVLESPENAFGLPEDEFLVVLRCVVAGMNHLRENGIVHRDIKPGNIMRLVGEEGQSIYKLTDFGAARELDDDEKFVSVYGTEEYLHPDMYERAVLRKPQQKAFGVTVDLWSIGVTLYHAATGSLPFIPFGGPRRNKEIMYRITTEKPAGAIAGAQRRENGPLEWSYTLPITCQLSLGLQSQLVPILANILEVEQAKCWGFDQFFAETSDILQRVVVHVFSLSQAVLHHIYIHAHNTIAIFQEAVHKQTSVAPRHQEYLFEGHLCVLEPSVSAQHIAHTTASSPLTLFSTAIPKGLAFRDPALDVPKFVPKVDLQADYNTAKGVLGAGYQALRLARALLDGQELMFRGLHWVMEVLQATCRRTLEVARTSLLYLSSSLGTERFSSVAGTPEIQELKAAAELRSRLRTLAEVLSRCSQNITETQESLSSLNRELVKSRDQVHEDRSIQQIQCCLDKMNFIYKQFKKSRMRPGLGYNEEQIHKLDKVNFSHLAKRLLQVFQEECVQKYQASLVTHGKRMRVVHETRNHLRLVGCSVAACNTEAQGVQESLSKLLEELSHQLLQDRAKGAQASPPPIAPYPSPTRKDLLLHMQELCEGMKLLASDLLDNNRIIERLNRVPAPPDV
From the text: Biological Assay for TBK1 and IKKs:

IC50 (TBK1) | IC50 (IKKε) | Structure (SMILES)
115 nM | 306 nM | CC(C)(C)OC(=O)N1CC[C@H](Oc2ccc(-c3ccnc4[nH]c(-c5ccc(N6CCOCC6)cc5)cc34)cc2C#N)C1 [Example 25, (S)-tert-butyl 3-(2-cyano-4-(2-(4-morpholinophenyl)-1H-pyrrolo[2,3-b]pyridin-4-yl)phenoxy)pyrrolidine-1-carboxylate]
11.3 nM | 16.8 nM | CN1CCN(c2ccc(-c3nc4c(-c5ccc(OC6CCNCC6)c(C#N)c5)ncnc4[nH]3)cc2)CC1 [Example 247, 5-(8-(4-(4-methylpiperazin-1-yl)phenyl)-9H-purin-6-yl)-2-(piperidin-4-yloxy)benzonitrile]
> 1000 nM | > 1000 nM | CC(C)(C)OC(=O)N1CC[C@@H](Oc2ccc(-c3ccnc4[nH]c(-c5ccc(N6CCOCC6)cc5)nc34)cc2C#N)C1 [Example 302, (R)-tert-butyl 3-(2-cyano-4-(2-(4-morpholinophenyl)-3H-imidazo[4,5-b]pyridin-7-yl)phenoxy)pyrrolidine-1-carboxylate]
4.49 nM | 15.5 nM | N#Cc1cc(-c2ncnc3[nH]c(-c4ccc(N5CCN(C6COC6)CC5)cc4)nc23)ccc1OC1CCOCC1 [Example 232, 5-(8-(4-(4-(oxetan-3-yl)piperazin-1-yl)phenyl)-9H-purin-6-yl)-2-((tetrahydro-2H-pyran-4-yl)oxy)benzonitrile]
22.2 nM | 102 nM | Cc1cc(N2CCOCC2)ccc1-c1cc2c(-c3ccc(OC4CCNCC4)c(C#N)c3)ncnc2[nH]1 [Example 120, 5-(6-(2-methyl-4-morpholinophenyl)-7H-pyrrolo[2,3-d]pyrimidin-4-yl)-2-(piperidin-4-yloxy)benzonitrile]
3.8 nM | 14 nM | N#Cc1cc(-c2ncnc3[nH]c(-c4ccc(C5CCN(CC(F)(F)F)CC5)cc4)nc23)ccc1OC1CCN(C(=O)CO)CC1 [Example 257, 2-((1-(2-hydroxyacetyl)piperidin-4-yl)oxy)-5-(8-(4-(1-(2,2,2-trifluoroethyl)piperidin-4-yl)phenyl)-9H-purin-6-yl)benzonitrile]
4.22 nM | 2.69 nM | CN1CCN(c2ccc(-c3nc4c(-c5ccc(OC6CCN(C=O)CC6)c(C#N)c5)ncnc4[nH]3)cc2)CC1 [Example 254, 2-((1-formylpiperidin-4-yl)oxy)-5-(8-(4-(4-methylpiperazin-1-yl)phenyl)-9H-purin-6-yl)benzonitrile]
24.9 nM | 182 nM | N#Cc1cc(-c2ccnc3[nH]c(-c4ccc(N5CCOCC5)cc4)cc23)ccc1N1CCCC1=O [Example 13, 5-(2-(4-morpholinophenyl)-1H-pyrrolo[2,3-b]pyridin-4-yl)-2-(2-oxopyrrolidin-1-yl)benzonitrile]
1.34 nM | 3.29 nM | COc1ccc(-c2cc3c(-c4ccc(OC5CCN(C(=O)CO)CC5)c(C#N)c4)ncnc3[nH]2)cc1 [Example 126, 2-((1-(2-hydroxyacetyl)piperidin-4-yl)oxy)-5-(6-(4-methoxyphenyl)-7H-pyrrolo[2,3-d]pyrimidin-4-yl)benzonitrile]
1.62 nM | 4.96 nM | N#Cc1cc(-c2ncnc3[nH]c(-c4ccc(C(=O)N5CCOCC5)cc4)cc23)ccc1OC1CCOCC1 [Example 186, 5-(6-(4-(morpholine-4-carbonyl)phenyl)-7H-pyrrolo[2,3-d]pyrimidin-4-yl)-2-((tetrahydro-2H-pyran-4-yl)oxy)benzonitrile]
3.92 nM | 2.25 nM | CN1CCN(c2ccc(-c3nc4c(-c5ccc(OC6CCN(C(=O)C(F)F)CC6)c(C#N)c5)ncnc4[nH]3)cc2)CC1 [Example 268, 2-((1-(2,2-difluoroacetyl)piperidin-4-yl)oxy)-5-(8-(4-(4-methylpiperazin-1-yl)phenyl)-9H-purin-6-yl)benzonitrile]
67.6 nM | 121 nM | Cc1noc(C)c1-c1cc2c(-c3ccc(OC4CCOCC4)c(C#N)c3)ccnc2[nH]1 [Example 216, 5-(2-(3,5-dimethylisoxazol-4-yl)-1H-pyrrolo[2,3-b]pyridin-4-yl)-2-((tetrahydro-2H-pyran-4-yl)oxy)benzonitrile]
9.62 nM | > 1000 nM | N#Cc1cc(-c2ccnc3[nH]c(-c4ccc5c(c4)C(=O)NC5)cc23)ccc1OC1CCOCC1 [Example 74, 5-(2-(3-oxoisoindolin-5-yl)-1H-pyrrolo[2,3-b]pyridin-4-yl)-2-((tetrahydro-2H-pyran-4-yl)oxy)benzonitrile]
4.05 nM | 17.5 nM | N#Cc1cc(-c2c(F)cnc3[nH]c(-c4ccc(N5CCOCC5)cc4)cc23)ccc1OC1CCOCC1 [Example 47, 5-(5-fluoro-2-(4-morpholinophenyl)-1H-pyrrolo[2,3-b]pyridin-4-yl)-2-((tetrahydro-2H-pyran-4-yl)oxy)benzonitrile]
> 1000 nM | > 1000 nM | N#Cc1cc(-c2cnnc3[nH]c(-c4ccc(N5CCOCC5)cc4)nc23)ccc1OC1CCOCC1 [Example 401, 5-(8-(4-morpholinophenyl)-9H-imidazo[4,5-c]pyridazin-6-yl)-2-((tetrahydro-2H-pyran-4-yl)oxy)benzonitrile]
32 nM | 32.2 nM | N#Cc1cc(-c2ccnc3[nH]c(-c4ccc5[nH]ccc5c4)cc23)ccc1OC1CCOCC1 [Example 45, 5-(2-(1H-indol-5-yl)-1H-pyrrolo[2,3-b]pyridin-4-yl)-2-((tetrahydro-2H-pyran-4-yl)oxy)benzonitrile]
9.4 nM | 13.7 nM | CC(C)(C)n1cc(-c2cc3c(-c4ccc(OC5CCOCC5)c(C#N)c4)ccnc3[nH]2)cn1 [Example 53, 5-(2-(1-(tert-butyl)-1H-pyrazol-4-yl)-1H-pyrrolo[2,3-b]pyridin-4-yl)-2-((tetrahydro-2H-pyran-4-yl)oxy)benzonitrile]

More lines, now with the values behind:

Structure (SMILES) | IC50 (TBK1) | IC50 (IKKε)
COc1cc(-c2cc3c(-c4ccc(OC5CCS(=O)(=O)CC5)c(C#N)c4)ncnc3[nH]2)ccc1N1CCN(C2COC2)CC1 [Example 139, 2-((1,1-dioxidotetrahydro-2H-thiopyran-4-yl)oxy)-5-(6-(3-methoxy-4-(4-(oxetan-3-yl)piperazin-1-yl)phenyl)-7H-pyrrolo[2,3-d]pyrimidin-4-yl)benzonitrile] | 3.68 nM | 25 nM
N#Cc1cc(-c2ncnc3[nH]c(-c4ccc(C5CCN(CC(F)F)CC5)cc4)nc23)ccc1OC1CCN(C=O)CC1 [Example 258, 5-(8-(4-(1-(2,2-difluoroethyl)piperidin-4-yl)phenyl)-9H-purin-6-yl)-2-((1-formylpiperidin-4-yl)oxy)benzonitrile] | 6.4 nM | 12.9 nM
C=C(C)c1ccc(-c2cc3c(-c4ccc(O[C@@H]5CCN(C(=O)CO)C5)c(C#N)c4)ccnc3[nH]2)cc1 [Example 150, (R)-2-((1-(2-hydroxyacetyl)pyrrolidin-3-yl)oxy)-5-(2-(4-(prop-1-en-2-yl)phenyl)-1H-pyrrolo[2,3-b]pyridin-4-yl)benzonitrile] | 11.2 nM | 18.4 nM
N#Cc1cc(-c2ncnc3[nH]c(-c4ccc(N5CCOCC5)cc4)nc23)ccc1OC1CCN(C(=O)CO)CC1 [Example 205, 2-((1-(2-hydroxyacetyl)piperidin-4-yl)oxy)-5-(8-(4-morpholinophenyl)-9H-purin-6-yl)benzonitrile] | 2.07 nM | 4.71 nM
COc1cc(-c2cc3c(-c4ccc(OC5CCOCC5)c(C#N)c4)ncnc3[nH]2)ccc1N1CCN(C(=O)CO)CC1 [Example 134, 5-(6-(4-(4-(2-hydroxyacetyl)piperazin-1-yl)-3-methoxyphenyl)-7H-pyrrolo[2,3-d]pyrimidin-4-yl)-2-((tetrahydro-2H-pyran-4-yl)oxy)benzonitrile] | 1.09 nM | 6.09 nM
N#Cc1cc(-c2ccnc3[nH]c(-c4cnn(C5CCOCC5)c4)cc23)ccc1OC1CCOCC1 [Example 51, 5-(2-(1-(tetrahydro-2H-pyran-4-yl)-1H-pyrazol-4-yl)-1H-pyrrolo[2,3-b]pyridin-4-yl)-2-((tetrahydro-2H-pyran-4-yl)oxy)benzonitrile] | 3.54 nM | 2.98 nM
N#Cc1cc(-c2ccnc3[nH]c(C(=O)NC4CC4)cc23)ccc1OC1CCOCC1 [Example 59, 4-(3-cyano-4-((tetrahydro-2H-pyran-4-yl)oxy)phenyl)-N-cyclopropyl-1H-pyrrolo[2,3-b]pyridine-2-carboxamide] | 79.4 nM | 55.4 nM
N#CCC(=O)N1CC[C@@H](Oc2ccc(-c3ccnc4[nH]c(-c5ccc(N6CCOCC6)cc5)cc34)cc2C#N)C1 [Example 16, (R)-2-((1-(2-cyanoacetyl)pyrrolidin-3-yl)oxy)-5-(2-(4-morpholinophenyl)-1H-pyrrolo[2,3-b]pyridin-4-yl)benzonitrile] | 4.32 nM | 13.8 nM
N#Cc1cc(-c2ccnc3[nH]c(C#CCO)cc23)ccc1OC1CCOCC1 [Example 148, 5-(2-(3-hydroxyprop-1-yn-1-yl)-1H-pyrrolo[2,3-b]pyridin-4-yl)-2-((tetrahydro-2H-pyran-4-yl)oxy)benzonitrile] | 184 nM | 205 nM
N#Cc1cc(-c2ncnc3[nH]c(-c4ccc(N5CCOCC5)cc4)nc23)ccc1OC1CCN(C(=O)C(F)F)CC1 [Example 248, 2-((1-(2,2-difluoroacetyl)piperidin-4-yl)oxy)-5-(8-(4-morpholinophenyl)-9H-purin-6-yl)benzonitrile] | 3.63 nM | 9.82 nM
N#Cc1cc(-c2ccnc3[nH]c(-c4ccc(N5CCOCC5)cc4)cc23)ccc1NC(=O)C1CC1 [Example 32, N-(2-cyano-4-(2-(4-morpholinophenyl)-1H-pyrrolo[2,3-b]pyridin-4-yl)phenyl)cyclopropanecarboxamide] | 9.34 nM | > 1000 nM
CC(=O)Nc1ccc(-c2cc3c(-c4ccc(OC5CCOCC5)c(C#N)c4)ccnc3[nH]2)cn1 [Example 236, N-(5-(4-(3-cyano-4-((tetrahydro-2H-pyran-4-yl)oxy)phenyl)-1H-pyrrolo[2,3-b]pyridin-2-yl)pyridin-2-yl)acetamide] | 15.8 nM | 7.91 nM

Source: patent US10072001B2, “Tank-binding kinase inhibitor compounds” (Gilead Sciences, Inc., priority 2014, dated 2018)
